Assay results published in patent publication US10729137B2, “Quaternary fungicidal mixture” (priority 2013, dated 2020).
“Also recorded” adds a separate entry of the source.

Key:
[1] = tested on: dollar spot, Sclerotinia homeocarpa; assay: Field study of disease control on creeping bentgrass plots (percent inhibition, Colby synergy); assay type: in vivo; conditions: four applications at 14 day intervals, rated 15 days after final application, chlorothalonil 3.1, iprodione 1.03, thiophanate methyl 1.03, tebuconazole 0.31 LBai/A where included
Description: In the context of the present subject matter, the term “synergy” is as defined by S. R. Colby in an article entitled “Calculation of the synergistic and antagonistic responses of herbicide combinations” published in the journal Weeds, 1967, 15, p. 20-22, incorporated herein by reference in its entirety. The action expected for a given combination of four active components can be calculated as follows:
[formula] in which E represents the expected percentage of fungicidal control (percent inhibition) for the multiple mixture of fungicides at defined doses (for example equal to x, y, z and w, respectively). X is the percentage of fungicide control observed by chlorothalonil at a defined dose (equal to x). Y is the percentage of fungicide control observed by iprodione at a defined dose (equal to y). Z is the percentage of fungicide control observed by thiophanate methyl at a defined dose (equal to z). W is the percentage of fungicide control observed by tebuconazole at a defined dose (equal to w). Here, efficacy or percent inhibition is determined in %. 0% means efficacy that corresponds to the Control, i.e., as if no treatment had been applied. Whereas, a percent inhibition of 100% means that no infection is observed. When the percent inhibition observed for the combination is greater than E, there is a synergistic effect. When the percent inhibition observed for the combination is equal to E, there is an additive effect and wherein the percent inhibition observed for the combination is lower than E, there is an antagonistic effect.
In the Colby model, one can transform its use of “percent inhibition” (or control) to “percent-of-untreated Control” to solve for E1 rather than E and simplify the equation:
[formula] where E1=100−E (conversely, solving for E, 100−E1=E), X1=100−X, Y1=100−Y, Z1=100−Z, and W1=100−W. Although many combinations of fungicides have been studied and evaluated by means of the Colby Index, it is quite clear by modeling such synthetic expressions of synergy that the addition of a third, or even fourth, active ingredient to the premix may encounter the Point of Diminishing Returns caused by correction factors for 3- and 4-way interactions that offset the increase in E (or decrease in E1). In marked contrast, the present subject matter has shown an expansive effect and performance boost so great that differences between the observed and expected values computed according to Colby can best be used as a descriptive statistic confirming the quarternary fungicidal mixture's obvious effect.
(§1) A field study was conducted to identify which combinations would maintain or improve Turf Quality (TQ) and prevent or cure crown, basal or foliar pathogens such as dollar spot. Each solo treatment, 2-way (Pair), 3-way (Triad), and the present quaternary fungicidal mixture was applied bi-weekly beginning Jul. 1, 2013 prior to any evidence of decline in TQ or appearance of disease. Experimental plots were laid out in a Randomized Complete Block design.
(§2) The dosage of each fungicidal active substance was held constant regardless of whether it appeared alone or in combination with other fungicides in order to quantify synergy according to the Colby formula. The quaternary mixture of the present subject matter was applied at the lowest rate specified herein, about 5.5 lb active substance per acre. Applications were made to replicate plots of creeping bentgrass (Agrostis stolonifera), each measuring 3 ft×5 ft. The turf was mowed as needed to maintain standard fairway height (blade length less than 0.5″). Four applications were made at 14 day re-treatment intervals, which is a conventional treatment schedule at the time of year when outbreaks of turfgrass disease occur reliably in the mid-Atlantic region (Greenville, Del.).
The mix rate and volume of dilute spray applied to each plot was held constant. […]

[2] = tested on: creeping bentgrass (Agrostis stolonifera); assay: Field study, Turf Quality (TQ) rating of treated plots; assay type: in vivo; conditions: ordinal scale 1-9 (8 and higher ideal, under 6 unacceptable), same plots, rates and timing, 15 days after final application
Method: as §1, §2
The mix rate and volume of dilute spray applied to each plot was held constant. A CO2 backpack sprayer outfitted with TeeJet AI9504E flat fan nozzle delivered a water dilution of each treatment at the use rate of 43.5 gallons per acre (407 liters Ha^−1) and 35 psi (0.375 gallons per minute).
Plots were evaluated and disease or cause of lesion identified 15 days after the final scheduled application, which was made on 12 August. At that time researchers rated each plot's TQ, the incidence of disease and its severity. Percent disease ratings were calculated on the basis of the percent of area of each plot showing symptoms of a disease, primarily dollar spot. Turf quality and color ratings are typically used as an indicator of the health of the turfgrass. Turf quality is scored on an ordinal scale from 1-9, where plots rated 8 and higher are considered ideal for color, uniformity and density, around 6.5 and above is considered acceptable, and ratings under 6 unacceptable for turfgrass disease and/or turf quality.
Disease pressure evidenced by the untreated control ratings was considered severe. Six untreated control plots averaged 40% incidence, primarily due to a continuous increase in dollar spot pressure over time. By the end of the trial, TQ of the untreated plots declined to a low level, where leaf die-back, bleaching and lesions rated an average TQ of 4.2. Turf quality of plots treated with each active substance alone at these dosages was poor, averaging 3.9.

SMILES | Percent Inhibition [1] [%] | Turf Quality [2] | Percent Inhibition ([1]; listed as iprodione) | Turf Quality ([2]; listed as iprodione) | Percent Inhibition ([1]; listed as thiophanate methyl) | Turf Quality ([2]; listed as thiophanate methyl)
N#Cc1c(Cl)c(Cl)c(Cl)c(C#N)c1Cl [Chlorothalonil] | 15.8 | 4.3 | – | – | – | –
CC(C)NC(=O)N1CC(=O)N(c2cc(Cl)cc(Cl)c2)C1=O [Iprodione] | 5.8 | 4.0 | no better than the untreated control | no better than the untreated control | – | –
CC(C)(C)C(O)(CCc1ccc(Cl)cc1)Cn1cncn1 (stereo not drawn) [Tebuconazole] | 19.3 | 4.0 | – | – | – | –
COC(=O)NC(=S)Nc1ccccc1NC(=S)NC(=O)OC [Thio methyl, Thiophanate methyl] | 0 | 3.3 | – | – | no better than the untreated control | no better than the untreated control; also recorded: significantly lower ratings than those of the untreated Control
